Test results taken from EPA's ToxRefDB 2.

Tests used:
[1] = system: rat; conditions: Sub-acute repeat dose toxicity, Oral, Gavage/Intubation, dose end: 28 day, group: systemic
[2] = system: rat; conditions: Sub-acute repeat dose toxicity, Oral, Gavage/Intubation, dose end: 7 day, group: systemic
[3] = system: dog; conditions: Sub-acute repeat dose toxicity, beagle, Oral, Gavage/Intubation, dose end: 28 day, group: systemic
[4] = system: rat; conditions: Multigenerational reproductive toxicity study, sprague dawley, Oral, Feed, dose end: 2 generation
[5] = system: rat; conditions: Subchronic dermal toxicity, sprague dawley, Topical, dose end: 90 day, group: systemic
[6] = system: dog; conditions: Chronic toxicity, beagle, Oral, Gavage/Intubation, dose end: 12 month, group: systemic
[7] = system: rabbit; conditions: Prenatal developmental toxicity study, new zealand white, Oral, Gavage/Intubation, dose end: 18 GD
[8] = system: mouse; conditions: Carcinogenicity; cd1; Oral; Feed; dose end: 78 week; group: systemic; systemic / in life observation / body weight / body weight + systemic / in life observation / body weight / body weight gain
[9] = system: rat; conditions: Combined chronic toxicity/carcinogenicity; sprague dawley; Oral; Feed; dose end: 104 week; group: systemic; systemic / pathology microscopic / lymph node / hemorrhage + systemic / pathology microscopic / lymph node / hemosiderosis + systemic / …
[10] = system: rat; conditions: Subchronic oral toxicity in rodents, sprague dawley, Feed, dose end: 90 day, group: systemic, systemic / in life observation / body weight / body weight + systemic / in life observation / body weight / body weight gain + systemic / in…
[11] = system: rat; conditions: Prenatal developmental toxicity study, sprague dawley, Oral, Gavage/Intubation, dose end: 15 GD
[12] = system: rabbit; conditions: Prenatal developmental toxicity study, new zealand white, Oral, Gavage/Intubation, dose end: 19 GD
[13] = system: dog; conditions: Subchronic oral toxicity in nonrodent, beagle, Feed, dose end: 90 day, group: systemic, systemic / hematology / [other] / [other] + systemic / hematology / anisocytosis / anisocytosis + systemic / hematology / leukocyte (wbc) …
[14] = system: rat; conditions: Prenatal developmental toxicity study, sprague dawley, Oral, Gavage/Intubation, dose end: 15 GD; remark: listed apart in the source
[15] = system: mouse; conditions: Subchronic oral toxicity in rodents, cd1, Feed, dose end: 3 month, group: systemic, systemic / clinical chemistry / albumin / albumin + systemic / clinical chemistry / bilirubin / total bilirubin + systemic / organ weight / …
[16] = system: rat; conditions: Combined chronic toxicity/carcinogenicity; sprague dawley; Oral; Feed; dose end: 2 year; group: systemic; systemic / clinical chemistry / bilirubin / total bilirubin + systemic / hematology / lymphocyte / lymphocyte + systemic / hematology / …
[17] = system: rat; conditions: Subchronic oral toxicity in rodents, sprague dawley, Feed, dose end: 90 day, group: systemic
[18] = system: mouse; conditions: Carcinogenicity, cd1, Oral, Feed, dose end: 18 month, group: systemic
[19] = system: rat; conditions: Multigenerational reproductive toxicity study, sprague dawley, Oral, Feed, dose end: 2 generation; remark: listed apart in the source
[20] = system: dog; conditions: Chronic toxicity; beagle; Oral; Feed; dose end: 1 year; group: systemic; systemic / pathology microscopic / kidney / fatty change + systemic / pathology microscopic / kidney / lipofuscin deposits + systemic / …
[21] = systemic / clinical chemistry / alanine aminotransferase (alt/sgpt) / alanine aminotransferase (alt/sgpt) + systemic / clinical chemistry / …
[22] = systemic / in life observation / clinical signs / lacrimation or red-colored tears + systemic / in life observation / clinical signs / …
[23] = systemic / clinical chemistry / [other] / [other] + systemic / clinical chemistry / albumin / albumin + systemic / clinical chemistry / …
[24] = systemic / in life observation / clinical signs / salivation
[25] = systemic / in life observation / body weight / body weight + systemic / in life observation / clinical signs / dialated pupils + systemic / …
[26] = systemic / in life observation / clinical signs / dialated pupils + systemic / in life observation / clinical signs / distended abdomens + …
[27] = group: offspring, systemic / in life observation / body weight / offspring (pup) weight + systemic / in life observation / body weight / offspring (pup) …
[28] = group: parental, systemic / in life observation / body weight / body weight + systemic / in life observation / body weight / body weight gain + systemic / in…
[29] = systemic / pathology microscopic / skin / acanthosis
[30] = systemic / clinical chemistry / cholesterol / cholesterol + systemic / in life observation / clinical signs / emesis + systemic / in life …
[31] = group: developmental, systemic / in life observation / body weight / fetal weight
[32] = group: maternal, systemic / in life observation / body weight / body weight gain + systemic / in life observation / clinical signs / abnormal respiratory …
[33] = group: maternal, systemic / in life observation / clinical signs / defecation (diarrhea) + systemic / in life observation / clinical signs / oral discharge
[34] = group: developmental, developmental / developmental malformation / bone / [other] + developmental / developmental malformation / bone / incomplete ossification + …
[35] = group: maternal, systemic / in life observation / clinical signs / abnormal respiratory sounds
[36] = group: maternal, systemic / in life observation / clinical signs / abnormal respiratory sounds + systemic / in life observation / body weight / body weight …
[37] = group: developmental, developmental / developmental malformation / general / runts
[38] = group: developmental, developmental / developmental malformation / general / runts + developmental / developmental malformation / bone / detached + developmental…
[39] = group: maternal, systemic / in life observation / body weight / body weight gain + systemic / in life observation / food consumption / food consumption + …
[40] = group: developmental, developmental / developmental malformation / bone / full supernumerary + developmental / developmental malformation / bone / short …
[41] = group: maternal, systemic / in life observation / body weight / body weight gain
[42] = systemic / in life observation / body weight / body weight + systemic / in life observation / body weight / body weight gain
[43] = systemic / in life observation / body weight / body weight + systemic / in life observation / body weight / body weight gain + systemic / …
[44] = group: offspring, systemic / in life observation / body weight / offspring (pup) weight
[45] = group: parental, systemic / in life observation / body weight / body weight + systemic / in life observation / body weight / body weight gain
[46] = group: reproductive, reproductive / reproductive performance / fertility / fertility

CSc1ccc(Oc2ccc(S(N)(=O)=O)cc2CN(C)C)cc1C
LOAEL [1, 21]: > 500 mg/kg/day | NOAEL [1, 21]: ≥ 500 mg/kg/day | LEL [1, 22]: 5 mg/kg/day | NEL [1, 22]: < 5 mg/kg/day | LOAEL [2, 23]: > 1000 mg/kg/day | NOAEL [2, 23]: ≥ 1000 mg/kg/day | LEL [2, 24]: 250 mg/kg/day | NEL [2, 24]: < 250 mg/kg/day | LOAEL [3, 25]: > 40 mg/kg/day | NOAEL [3, 25]: ≥ 40 mg/kg/day | LEL [3, 26]: 4 mg/kg/day | NEL [3, 26]: < 4 mg/kg/day

CCCCCCCCCC[N+](C)(C)CCCCCCCCCC.[Cl-] [Didecyldimethylammonium chloride]
LEL [4, 27]: 101 mg/kg/day | LOAEL [4, 27]: 101 mg/kg/day | NEL [4, 27]: 48.2 mg/kg/day | NOAEL [4, 27]: 48.2 mg/kg/day | LEL [4, 28]: 101 mg/kg/day | LOAEL [4, 28]: 101 mg/kg/day | NEL [4, 28]: 48.2 mg/kg/day | NOAEL [4, 28]: 48.2 mg/kg/day | LEL [5, 29]: 2 mg/kg/day | NEL [5, 29]: < 2 mg/kg/day | LOAEL ([5]; systemic / pathology microscopic / skin / acanthosis + systemic / pathology microscopic / skin / inflammation): 6 mg/kg/day | NOAEL ([5]; systemic / pathology microscopic / skin / acanthosis + systemic / pathology microscopic / skin / inflammation + systemic / in life …): 2 mg/kg/day | LOAEL [6, 30]: 20 mg/kg/day | NEL [6, 30]: 3 mg/kg/day | NOAEL [6, 30]: 10 mg/kg/day | LEL ([6]; systemic / in life observation / clinical signs / emesis + systemic / in life observation / clinical signs / mucoid stools + systemic / in …): 10 mg/kg/day | LEL [7, 31]: 10 mg/kg/day | LOAEL [7, 31]: 10 mg/kg/day | NEL [7, 31]: 3 mg/kg/day | NOAEL [7, 31]: 3 mg/kg/day | LOAEL [7, 32]: 3 mg/kg/day | NOAEL [7, 32]: 1 mg/kg/day | LEL [7, 33]: 1 mg/kg/day | NEL [7, 33]: < 1 mg/kg/day | LEL [8]: 156 mg/kg/day | LOAEL [8]: 156 mg/kg/day | NEL [8]: 76.3 mg/kg/day | NOAEL [8]: 76.3 mg/kg/day | LEL [9]: 64 mg/kg/day | LOAEL [9]: 64 mg/kg/day | NEL [9]: 32 mg/kg/day | NOAEL [9]: 32 mg/kg/day | LEL [10]: 175 mg/kg/day | LOAEL [10]: 175 mg/kg/day | NEL [10]: 60.7 mg/kg/day | NOAEL [10]: 60.7 mg/kg/day | LEL [11, 34]: 20 mg/kg/day | LOAEL [11, 34]: 20 mg/kg/day | NEL [11, 34]: 10 mg/kg/day | NOAEL [11, 34]: 10 mg/kg/day | LEL [11, 35]: 10 mg/kg/day | LOAEL [11, 35]: 10 mg/kg/day | NEL [11, 36]: 1 mg/kg/day | NOAEL [11, 36]: 1 mg/kg/day

COc1nc(C)nc(NC(=O)NS(=O)(=O)c2ccccc2CCC(F)(F)F)n1 [Prosulfuron]
NEL [12, 37]: 100 mg/kg/day | NOAEL [12, 37]: 100 mg/kg/day | LEL [12, 38]: 200 mg/kg/day | LOAEL [12, 38]: 200 mg/kg/day | LOAEL ([12]; group: maternal, systemic / in life observation / body weight / body weight gain + systemic / in life observation / food consumption / food consumption): 100 mg/kg/day | LEL [12, 39]: 100 mg/kg/day | NEL [12, 39]: 20 mg/kg/day | NOAEL [12, 39]: 20 mg/kg/day | LEL [13]: 54 mg/kg/day | LOAEL [13]: 54 mg/kg/day | NEL [13]: 6.5 mg/kg/day | NOAEL [13]: 6.5 mg/kg/day | LEL [14, 40]: 400 mg/kg/day | LOAEL [14, 40]: 400 mg/kg/day | NEL [14, 40]: 200 mg/kg/day | NOAEL [14, 40]: 200 mg/kg/day | LEL [14, 41]: 400 mg/kg/day | LOAEL [14, 41]: 400 mg/kg/day | NEL [14, 41]: 200 mg/kg/day | NOAEL [14, 41]: 200 mg/kg/day | LEL [15]: 69.3 mg/kg/day | LOAEL [15]: 69.3 mg/kg/day | NEL [15]: 2.01 mg/kg/day | NOAEL [15]: 2.01 mg/kg/day | LEL [16]: 0.4 mg/kg/day | LOAEL [16]: 79.9 mg/kg/day | NEL [16]: < 0.4 mg/kg/day | NOAEL [16]: 7.9 mg/kg/day | LEL [17, 42]: 31 mg/kg/day | LOAEL [17, 42]: 31 mg/kg/day | NEL [17, 43]: 3.1 mg/kg/day | NOAEL [17, 43]: 3.1 mg/kg/day | LOAEL ([18]; systemic / in life observation / body weight / body weight gain): 508 mg/kg/day | NOAEL ([18]; systemic / in life observation / body weight / body weight gain + systemic / hematology / mean corpuscular hemoglobin concentration (mchc…): 100 mg/kg/day | LEL ([18]; systemic / pathology microscopic / liver / hypertrophy): 81.4 mg/kg/day | NEL ([18]; systemic / pathology microscopic / liver / hypertrophy + systemic / hematology / hematocrit (hct) / hematocrit (hct) + systemic / in life …): 1.71 mg/kg/day | LEL [19, 44]: 136 mg/kg/day | LOAEL [19, 44]: 136 mg/kg/day | NEL [19, 44]: 13.3 mg/kg/day | NOAEL [19, 44]: 13.3 mg/kg/day | LEL [19, 45]: 136 mg/kg/day | LOAEL [19, 45]: 136 mg/kg/day | NEL [19, 45]: 13.3 mg/kg/day | NOAEL [19, 45]: 13.3 mg/kg/day | LEL [19, 46]: 278 mg/kg/day | LOAEL [19, 46]: > 278 mg/kg/day | NEL [19, 46]: 136 mg/kg/day | NOAEL [19, 46]: ≥ 278 mg/kg/day | LEL [20]: 18.6 mg/kg/day | LOAEL [20]: 18.6 mg/kg/day | NEL [20]: 1.95 mg/kg/day | NOAEL [20]: 1.95 mg/kg/day
